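How tested: cells in 96-well plates exposed to compound for 48 hours at five concentrations. GI50: concentration for 50% inhibition of growth.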 Activity calls are given as the source filed them. No stated cut-off is given here; in the data, active = GI50 up to about 1.1 µM and inactive = higher.
Legend:
Assay in all cases: growth of human tumour cells (NCI), 48 h
HOP-18 = test system: HOP-18
NCI-H460 = test system: NCI-H460
OVCAR-5 = test system: OVCAR-5
LXFL 529 = test system: LXFL 529
HCT-15 = test system: HCT-15
SNB-78 = test system: SNB-78
T47D = test system: T47D
A549 = test system: A549
Hs-578T = test system: Hs-578T
MDA-MB-435 = test system: MDA-MB-435
NCI-H226 = test system: NCI-H226
SNB-75 = test system: SNB-75
SF-539 = test system: SF-539
NCI-H522 = test system: NCI-H522
DMS-273 = test system: DMS-273
KM-20L2 = test system: KM-20L2
XF498 = test system: XF498
SK-MEL-2 = test system: SK-MEL-2
HOP-92 = test system: HOP-92
DU-145 = test system: DU-145
HCC 2998 = test system: HCC 2998
DLD-1 = test system: DLD-1
KM12 = test system: KM12
HCT-116 = test system: HCT-116
786-0 = test system: 786-0
UACC-257 = test system: UACC-257
SW-620 = test system: SW-620
SK-MEL-5 = test system: SK-MEL-5
M14 = test system: M14
UACC-62 = test system: UACC-62
EKVX = test system: EKVX
LOX IMVI = test system: LOX IMVI
OVCAR-3 = test system: OVCAR-3
SR = test system: SR
Malme-3M = test system: Malme-3M
OVCAR-4 = test system: OVCAR-4
SNB-19 = test system: SNB-19
UO-31 = test system: UO-31
NCI-H23 = test system: NCI-H23
HOP-62 = test system: HOP-62
ACHN = test system: ACHN
SN12C = test system: SN12C
SK-MEL-28 = test system: SK-MEL-28
OVCAR-8 = test system: OVCAR-8
HT-29 = test system: HT-29
A498 = test system: A498
SF-295 = test system: SF-295
RXF 393 = test system: RXF 393
RPMI-8226 = test system: RPMI-8226
CCRF-CEM = test system: CCRF-CEM
SF-268 = test system: SF-268
DMS-114 = test system: DMS-114
HL-60 = test system: HL-60
U-251 = test system: U-251
TK-10 = test system: TK-10
MOLT-4 = test system: MOLT-4
SK-OV-3 = test system: SK-OV-3
IGROV-1 = test system: IGROV-1
M19-MEL = test system: M19-MEL
K562 = test system: K562
COLO 205 = test system: COLO 205
CAKI-1 = test system: CAKI-1
NCI/ADR-RES = test system: NCI/ADR-RES
MCF7 = test system: MCF7

With `O=C1C(Cl)=C(N2CCN(CCOCCO)CC2)C(=O)c2c(O)ccc(O)c21` the GI50 (HOP-18) was 1.38 µM (inactive), the GI50 (NCI-H460) was 3.1 µM (inactive) and the GI50 (OVCAR-5) was 1.79 µM (inactive). For the same compound, the GI50 (LXFL 529) was 0.224 µM (active), the GI50 (HCT-15) was 0.292 µM and the GI50 (SNB-78) was 0.363 µM (active). The GI50 (T47D) was 0.438 µM (active), the GI50 (A549) was 2.71 µM (inactive) and the GI50 (Hs-578T) was 2.64 µM (inactive). For the same compound, the GI50 (MDA-MB-435) was 0.295 µM (active), the GI50 (NCI-H226) was 1.99 µM (inactive) and the GI50 (SNB-75) was 1.41 µM (inactive). The GI50 (SF-539) was 1.3 µM (inactive), the GI50 (NCI-H522) was 0.174 µM (active) and the GI50 (DMS-273) was 1.05 µM (active). For the same compound, the GI50 (KM-20L2) was 0.716 µM (active), the GI50 (XF498) was 0.557 µM (active) and the GI50 (SK-MEL-2) was 0.404 µM (active). The GI50 (HOP-92) was 0.231 µM (active), the GI50 (DU-145) was 1.85 µM (inactive) and the GI50 (HCC 2998) was 1.93 µM (inactive). The GI50 (DLD-1) was 0.195 µM (active).

In the case of `O=C1C(CN2CCCCC2)CCCC1CN1CCCCC1` (configuration not stated), the GI50 (KM12) is reported as > 60.3 µM (inactive), the GI50 (HOP-18) is reported as 14.7 µM (inactive) and the GI50 (OVCAR-5) is reported as > 59 µM (inactive). For the same compound, the GI50 (LXFL 529) was 15.6 µM (inactive), the GI50 (HCT-15) was 14.2 µM and the GI50 (HCT-116) was 14.5 µM (inactive). For the same compound, the GI50 (786-0) was 7.29 µM (inactive), the GI50 (UACC-257) was 24.9 µM (inactive) and the GI50 (SW-620) was 9.89 µM (inactive). For the same compound, the GI50 (SNB-78) was 22.8 µM (inactive), the GI50 (A549) was > 100 µM (inactive) and the GI50 (SK-MEL-5) was > 31.6 µM (inactive). The GI50 (NCI-H226) was > 100 µM (inactive), the GI50 (M14) was 32.3 µM (inactive) and the GI50 (UACC-62) was > 40.6 µM (inactive). The GI50 (EKVX) was 19.9 µM (inactive), the GI50 (SF-539) was > 43.2 µM (inactive) and the GI50 (LOX IMVI) was 25.5 µM (inactive). For the same compound, the GI50 (OVCAR-3) was 17.1 µM (inactive), the GI50 (DMS-273) was 29.6 µM (inactive) and the GI50 (SR) was 8.93 µM (inactive). For the same compound, the GI50 (Malme-3M) was 5.82 µM (inactive), the GI50 (KM-20L2) was 13.3 µM (inactive) and the GI50 (OVCAR-4) was > 10 µM (inactive). For the same compound, the GI50 (SNB-19) was > 100 µM (inactive), the GI50 (UO-31) was > 42.2 µM (inactive) and the GI50 (NCI-H23) was > 45.1 µM (inactive). For the same compound, the GI50 (HOP-62) was > 100 µM (inactive), the GI50 (ACHN) was 19.6 µM (inactive) and the GI50 (XF498) was 18.4 µM (inactive). The GI50 (SN12C) was 26.2 µM (inactive), the GI50 (SK-MEL-28) was 13.7 µM (inactive) and the GI50 (OVCAR-8) was 14.9 µM (inactive). For the same compound, the GI50 (HT-29) was 18.8 µM (inactive), the GI50 (HCC 2998) was > 100 µM (inactive) and the GI50 (A498) was > 100 µM (inactive). The GI50 (DLD-1) was 15.9 µM (inactive) and the GI50 (SF-295) was > 100 µM (inactive).

`Cc1ccccc1NC(=O)c1nc(S)nc(N)c1-c1ccccc1C` was tested, and the GI50 (RXF 393) was > 100 µM (inactive), the GI50 (KM12) was > 100 µM (inactive) and the GI50 (HOP-18) was > 100 µM (inactive). The GI50 (NCI-H460) was > 100 µM (inactive), the GI50 (OVCAR-5) was > 100 µM (inactive) and the GI50 (LXFL 529) was > 100 µM (inactive). The GI50 (HCT-15) was > 100 µM, the GI50 (HCT-116) was > 100 µM (inactive) and the GI50 (RPMI-8226) was > 100 µM (inactive). For the same compound, the GI50 (786-0) was > 100 µM (inactive), the GI50 (UACC-257) was > 100 µM (inactive) and the GI50 (SW-620) was > 100 µM (inactive). The GI50 (SNB-78) was > 100 µM (inactive), the GI50 (A549) was > 100 µM (inactive) and the GI50 (SK-MEL-5) was > 100 µM (inactive). For the same compound, the GI50 (NCI-H226) was > 100 µM (inactive), the GI50 (M14) was > 100 µM (inactive) and the GI50 (UACC-62) was > 100 µM (inactive). For the same compound, the GI50 (SNB-75) was 1.74 µM (inactive), the GI50 (EKVX) was > 100 µM (inactive) and the GI50 (SF-539) was > 100 µM (inactive). For the same compound, the GI50 (CCRF-CEM) was > 100 µM (inactive), the GI50 (NCI-H522) was > 100 µM (inactive) and the GI50 (LOX IMVI) was > 100 µM (inactive). For the same compound, the GI50 (SF-268) was > 100 µM (inactive), the GI50 (OVCAR-3) was > 100 µM (inactive) and the GI50 (DMS-114) was > 100 µM (inactive). The GI50 (HL-60) was > 100 µM (inactive), the GI50 (DMS-273) was > 100 µM (inactive) and the GI50 (SR) was > 100 µM (inactive). For the same compound, the GI50 (Malme-3M) was > 100 µM (inactive), the GI50 (KM-20L2) was > 100 µM (inactive) and the GI50 (OVCAR-4) was > 100 µM (inactive). The GI50 (U-251) was > 100 µM (inactive), the GI50 (SNB-19) was > 100 µM (inactive) and the GI50 (TK-10) was > 100 µM (inactive). For the same compound, the GI50 (UO-31) was > 100 µM (inactive), the GI50 (NCI-H23) was > 100 µM (inactive) and the GI50 (HOP-62) was > 100 µM (inactive). The GI50 (ACHN) was > 100 µM (inactive), the GI50 (MOLT-4) was > 100 µM (inactive) and the GI50 (SK-MEL-2) was > 100 µM (inactive). For the same compound, the GI50 (SN12C) was > 100 µM (inactive), the GI50 (SK-OV-3) was > 100 µM (inactive) and the GI50 (HOP-92) was > 100 µM (inactive). For the same compound, the GI50 (IGROV-1) was > 100 µM (inactive), the GI50 (SK-MEL-28) was > 100 µM (inactive) and the GI50 (M19-MEL) was > 100 µM (inactive). For the same compound, the GI50 (OVCAR-8) was > 100 µM (inactive), the GI50 (HT-29) was > 100 µM (inactive) and the GI50 (K562) was > 100 µM (inactive). The GI50 (COLO 205) was > 100 µM (inactive), the GI50 (HCC 2998) was > 100 µM (inactive) and the GI50 (A498) was > 100 µM (inactive). For the same compound, the GI50 (DLD-1) was > 100 µM (inactive), the GI50 (CAKI-1) was > 100 µM (inactive) and the GI50 (SF-295) was > 100 µM (inactive).

For `O=C(NCCCl)O/N=C/c1cccnc1`, the GI50 (KM12) was > 100 µM (inactive), the GI50 (HOP-18) was > 100 µM (inactive) and the GI50 (NCI-H460) was > 100 µM (inactive). For the same compound, the GI50 (NCI/ADR-RES) was > 100 µM (inactive), the GI50 (OVCAR-5) was > 100 µM (inactive) and the GI50 (HCT-15) was > 100 µM. For the same compound, the GI50 (HCT-116) was > 100 µM (inactive), the GI50 (RPMI-8226) was > 100 µM (inactive) and the GI50 (UACC-257) was > 100 µM (inactive). For the same compound, the GI50 (SW-620) was > 100 µM (inactive), the GI50 (A549) was > 100 µM (inactive) and the GI50 (SK-MEL-5) was > 100 µM (inactive). For the same compound, the GI50 (NCI-H226) was > 100 µM (inactive), the GI50 (UACC-62) was > 100 µM (inactive) and the GI50 (SNB-75) was 61 µM (inactive). The GI50 (EKVX) was > 100 µM (inactive), the GI50 (SF-539) was > 100 µM (inactive) and the GI50 (CCRF-CEM) was > 100 µM (inactive). The GI50 (NCI-H522) was > 100 µM (inactive), the GI50 (LOX IMVI) was > 100 µM (inactive) and the GI50 (SF-268) was > 100 µM (inactive). For the same compound, the GI50 (OVCAR-3) was > 100 µM (inactive), the GI50 (DMS-114) was > 100 µM (inactive) and the GI50 (HL-60) was > 100 µM (inactive). The GI50 (DMS-273) was > 100 µM (inactive), the GI50 (OVCAR-4) was > 100 µM (inactive) and the GI50 (U-251) was > 100 µM (inactive). The GI50 (SNB-19) was > 100 µM (inactive), the GI50 (UO-31) was > 100 µM (inactive) and the GI50 (NCI-H23) was > 100 µM (inactive). The GI50 (HOP-62) was > 100 µM (inactive), the GI50 (XF498) was > 100 µM (inactive) and the GI50 (MOLT-4) was > 100 µM (inactive). For the same compound, the GI50 (SK-MEL-2) was > 100 µM (inactive), the GI50 (SN12C) was > 100 µM (inactive) and the GI50 (SK-OV-3) was > 100 µM (inactive). The GI50 (HOP-92) was > 100 µM (inactive), the GI50 (IGROV-1) was > 100 µM (inactive) and the GI50 (SK-MEL-28) was > 100 µM (inactive). For the same compound, the GI50 (M19-MEL) was > 100 µM (inactive), the GI50 (OVCAR-8) was > 100 µM (inactive) and the GI50 (HT-29) was > 100 µM (inactive). The GI50 (K562) was > 100 µM (inactive), the GI50 (COLO 205) was > 100 µM (inactive) and the GI50 (HCC 2998) was > 100 µM (inactive). The GI50 (MCF7) was > 100 µM (inactive), the GI50 (A498) was > 100 µM (inactive) and the GI50 (DLD-1) was > 100 µM (inactive). For the same compound, the GI50 (CAKI-1) was > 100 µM (inactive) and the GI50 (SF-295) was > 100 µM (inactive).

Source: ChEMBL document CHEMBL1201862, “PubChem BioAssay data set” (2004)
